# Data reported in PMC7531004, “Discovery of gramicidin A analogues with altered activities by multidimensional screening of a one-bead-one-compound library” (Nature Communications, 2020).
# Where a SMILES comes first, the peptide text is derived from it. [ ]: non-standard residue; d: D form. The star is where a group is joined. NHCH2CH2OH = OCCN*; For = O=C*
# What was measured:
# [1] = H+/Na+ transport assay of bead-derived peptides (one-point); assay type: biochemical; design: key: relative activity; mean of two control wells = 1.00; conditions: bead-derived peptide solution, EYPC/EYPG LUVs;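 note: relative to parent gramicidin A activity set to 1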
# How it was run: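 H+/Na+ transport is monitored through pyranine fluorescence in freshly extruded LUVs after a 30-min room-temperature vortex with each library peptide at a single concentration. Signals are normalized to detergent (Triton X-100) and untreated controls.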
# [2] = system: P388 mouse leukemia cells; conditions: 92 h
# How it was run: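 P388 cells at 1 × 10^4 cells/mL (final) were exposed to library peptides (stocks diluted 250-fold in RPMI1640/10% FBS) for 92 h at 37 °C, 5% CO2. Viable cells were counted by WST-1/1-methoxy PMS (4 h), absorbance 415 nm, and expressed as cell viability (%).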
# [3] = system: Streptococcus pyogenes SSI-9; test: Antibacterial activity assay of bead-derived peptides (three concentrations); assay type: cell-based; design: key: +++: inhibition by the 640-fold diluted peptide solution; ++: inhibition by the 160-fold diluted solution; +: inhibition by the 40-fold diluted solution; -: no inhibition; conditions: S. pyogenes, bead-derived peptide solution, three concentrations
# How it was run: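 Library peptide stock applied undiluted, 4-fold and 16-fold diluted in DMSO to S. pyogenes SSI-9 (2 × 10^5 CFU) in cation-adjusted Mueller Hinton broth with 5% laked horse blood. After 18 h at 37 °C, growth judged by visible cell precipitation.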
SMILES,H+/Na+ transport activity normalized against the value of 1 (1.00) [1],cell viability/% [2],antibacterial activity [3]
CC(C)C[C@@H](NC(=O)[C@H](C)NC(=O)[C@H](NC(=O)[C@H](C)NC(=O)CNC(=O)[C@@H](NC=O)C(C)C)[C@H](C)O)C(=O)N[C@H](C(=O)N[C@H](CC(C)C)C(=O)N[C@@H](Cc1c[nH]c2ccccc12)C(=O)N[C@@H](C(=O)N[C@@H](Cc1c[nH]c2ccccc12)C(=O)N[C@@H](C(=O)N[C@@H](Cc1c[nH]c2ccccc12)C(=O)N[C@H](CC(C)C)C(=O)N[C@@H](Cc1c[nH]c2ccccc12)C(=O)NCCO)C(C)C)C(C)C)C(C)C [compound 2242] (For-VGA[dT]A[dL]V[dL]W[dV]W[dV]W[dL]W-NHCH2CH2OH),1.15,100.0%,-
CC(C)C[C@@H](NC(=O)[C@H](C)NC(=O)CNC(=O)[C@@H](NC=O)C(C)C)C(=O)N[C@@H](C)C(=O)N[C@H](CC(C)C)C(=O)N[C@H](C(=O)N[C@H](CC(C)C)C(=O)N[C@@H](Cc1c[nH]c2ccccc12)C(=O)N[C@H](CC(C)C)C(=O)N[C@@H](Cc1c[nH]c2ccccc12)C(=O)N[C@@H](C(=O)N[C@@H](Cc1c[nH]c2ccccc12)C(=O)N[C@H](CC(C)C)C(=O)N[C@@H](Cc1c[nH]c2ccccc12)C(=O)NCCO)[C@H](C)O)C(C)C [compound 2283] (For-VGA[dL]A[dL]V[dL]W[dL]W[dT]W[dL]W-NHCH2CH2OH),1.07,100.0%,-
CNC(=O)C[C@@H](NC(=O)[C@@H](NC(=O)[C@@H](CC(C)C)NC(=O)[C@H](C)NC(=O)[C@@H](CC(C)C)NC(=O)[C@H](C)NC(=O)CNC(=O)[C@@H](NC=O)C(C)C)C(C)C)C(=O)N[C@@H](Cc1c[nH]c2ccccc12)C(=O)N[C@H](CC(C)C)C(=O)N[C@@H](Cc1c[nH]c2ccccc12)C(=O)N[C@H](CC(C)C)C(=O)N[C@@H](Cc1c[nH]c2ccccc12)C(=O)N[C@H](CC(C)C)C(=O)N[C@@H](Cc1c[nH]c2ccccc12)C(=O)NCCO [compound 2444] (For-VGA[dL]A[dL]V[dD](NHMe)W[dL]W[dL]W[dL]W-NHCH2CH2OH),1.32,100.0%,-
CNC(=O)C[C@@H](NC(=O)[C@H](Cc1c[nH]c2ccccc12)NC(=O)[C@@H](CC(C)C)NC(=O)[C@H](Cc1c[nH]c2ccccc12)NC(=O)[C@H](NC(=O)[C@H](Cc1c[nH]c2ccccc12)NC(=O)[C@@H](CC(C)C)NC(=O)[C@@H](NC(=O)[C@H](NC(=O)[C@H](C)NC(=O)[C@H](NC(=O)[C@H](C)NC(=O)CNC(=O)[C@@H](NC=O)C(C)C)C(C)C)C(C)C)C(C)C)C(C)C)C(=O)N[C@@H](Cc1c[nH]c2ccccc12)C(=O)NCCO [compound 2526] (For-VGA[dV]A[dV]V[dL]W[dV]W[dL]W[dD](NHMe)W-NHCH2CH2OH),1.02,100.0%,-
CC(C)C[C@@H](NC(=O)[C@H](Cc1c[nH]c2ccccc12)NC(=O)[C@H](NC(=O)[C@H](Cc1c[nH]c2ccccc12)NC(=O)[C@H](NC(=O)[C@H](Cc1c[nH]c2ccccc12)NC(=O)[C@@H](CC(C)C)NC(=O)[C@@H](NC(=O)[C@H](NC(=O)[C@H](C)NC(=O)[C@H](NC(=O)[C@H](C)NC(=O)CNC(=O)[C@@H](NC=O)C(C)C)[C@H](C)O)C(C)C)C(C)C)C(C)C)C(C)C)C(=O)N[C@@H](Cc1c[nH]c2ccccc12)C(=O)NCCO [compound 2532] (For-VGA[dT]A[dV]V[dL]W[dV]W[dV]W[dL]W-NHCH2CH2OH),1.22,100.0%,-
CC(C)C[C@@H](NC(=O)[C@H](Cc1c[nH]c2ccccc12)NC(=O)[C@H](NC(=O)[C@H](Cc1c[nH]c2ccccc12)NC(=O)[C@@H](CC(C)C)NC(=O)[C@@H](NC(=O)[C@H](NC(=O)[C@H](C)NC(=O)[C@H](NC(=O)[C@H](C)NC(=O)CNC(=O)[C@@H](NC=O)C(C)C)C(C)C)C(C)C)C(C)C)C(C)C)C(=O)N[C@@H](Cc1c[nH]c2ccccc12)C(=O)N[C@@H](C(=O)N[C@@H](Cc1c[nH]c2ccccc12)C(=O)NCCO)C(C)C [compound 2554] (For-VGA[dV]A[dV]V[dL]W[dV]W[dL]W[dV]W-NHCH2CH2OH),1.06,9.2%,++
CC(C)C[C@@H](NC(=O)[C@H](Cc1c[nH]c2ccccc12)NC(=O)[C@H](NC(=O)[C@H](Cc1c[nH]c2ccccc12)NC(=O)[C@H](NC(=O)[C@H](Cc1c[nH]c2ccccc12)NC(=O)[C@@H](CC(C)C)NC(=O)[C@@H](NC(=O)[C@H](NC(=O)[C@H](C)NC(=O)[C@H](NC(=O)[C@H](C)NC(=O)CNC(=O)[C@@H](NC=O)C(C)C)C(C)C)C(C)C)C(C)C)C(C)C)[C@H](C)O)C(=O)N[C@@H](Cc1c[nH]c2ccccc12)C(=O)NCCO [compound 2580] (For-VGA[dV]A[dV]V[dL]W[dV]W[dT]W[dL]W-NHCH2CH2OH),1.00,100.0%,-
CC(C)C[C@@H](NC(=O)[C@H](C)NC(=O)CNC(=O)[C@@H](NC=O)C(C)C)C(=O)N[C@@H](C)C(=O)N[C@H](CC(C)C)C(=O)N[C@H](C(=O)N[C@H](CC(C)C)C(=O)N[C@@H](Cc1c[nH]c2ccccc12)C(=O)N[C@H](CC(C)C)C(=O)N[C@@H](Cc1c[nH]c2ccccc12)C(=O)N[C@@H](C(=O)N[C@@H](Cc1c[nH]c2ccccc12)C(=O)N[C@@H](C(=O)N[C@@H](Cc1c[nH]c2ccccc12)C(=O)NCCO)C(C)C)C(C)C)C(C)C [compound 2718] (For-VGA[dL]A[dL]V[dL]W[dL]W[dV]W[dV]W-NHCH2CH2OH),1.11,0.3%,+
CNC(=O)C[C@@H](NC(=O)[C@H](Cc1c[nH]c2ccccc12)NC(=O)[C@H](NC(=O)[C@H](Cc1c[nH]c2ccccc12)NC(=O)[C@@H](CC(C)C)NC(=O)[C@H](Cc1c[nH]c2ccccc12)NC(=O)[C@@H](CC(C)C)NC(=O)[C@@H](NC(=O)[C@@H](CC(C)C)NC(=O)[C@H](C)NC(=O)[C@@H](CC(C)C)NC(=O)[C@H](C)NC(=O)CNC(=O)[C@@H](NC=O)C(C)C)C(C)C)C(C)C)C(=O)N[C@@H](Cc1c[nH]c2ccccc12)C(=O)NCCO [compound 2764] (For-VGA[dL]A[dL]V[dL]W[dL]W[dV]W[dD](NHMe)W-NHCH2CH2OH),1.12,75.7%,-
CC(C)C[C@@H](NC(=O)[C@H](C)NC(=O)[C@H](NC(=O)[C@H](C)NC(=O)CNC(=O)[C@@H](NC=O)C(C)C)C(C)C)C(=O)N[C@H](C(=O)N[C@H](CC(C)C)C(=O)N[C@@H](Cc1c[nH]c2ccccc12)C(=O)N[C@@H](C(=O)N[C@@H](Cc1c[nH]c2ccccc12)C(=O)N[C@@H](C(=O)N[C@@H](Cc1c[nH]c2ccccc12)C(=O)N[C@@H](C(=O)N[C@@H](Cc1c[nH]c2ccccc12)C(=O)NCCO)C(C)C)C(C)C)C(C)C)C(C)C [compound 2832] (For-VGA[dV]A[dL]V[dL]W[dV]W[dV]W[dV]W-NHCH2CH2OH),1.23,17.7%,+
CNC(=O)C[C@@H](NC(=O)[C@@H](NC(=O)[C@H](NC(=O)[C@H](C)NC(=O)[C@@H](CC(C)C)NC(=O)[C@H](C)NC(=O)CNC(=O)[C@@H](NC=O)C(C)C)C(C)C)C(C)C)C(=O)N[C@@H](Cc1c[nH]c2ccccc12)C(=O)N[C@H](CC(C)C)C(=O)N[C@@H](Cc1c[nH]c2ccccc12)C(=O)N[C@@H](C(=O)N[C@@H](Cc1c[nH]c2ccccc12)C(=O)N[C@H](CC(C)C)C(=O)N[C@@H](Cc1c[nH]c2ccccc12)C(=O)NCCO)C(C)C [compound 2881] (For-VGA[dL]A[dV]V[dD](NHMe)W[dL]W[dV]W[dL]W-NHCH2CH2OH),1.16,100.0%,-
CC(C)C[C@@H](NC(=O)[C@H](C)NC(=O)CNC(=O)[C@@H](NC=O)C(C)C)C(=O)N[C@@H](C)C(=O)N[C@H](CC(C)C)C(=O)N[C@H](C(=O)N[C@@H](C(=O)N[C@@H](Cc1c[nH]c2ccccc12)C(=O)N[C@@H](C(=O)N[C@@H](Cc1c[nH]c2ccccc12)C(=O)N[C@@H](C(=O)N[C@@H](Cc1c[nH]c2ccccc12)C(=O)N[C@@H](C(=O)N[C@@H](Cc1c[nH]c2ccccc12)C(=O)NCCO)C(C)C)[C@H](C)O)C(C)C)C(C)C)C(C)C [compound 2887] (For-VGA[dL]A[dL]V[dV]W[dV]W[dT]W[dV]W-NHCH2CH2OH),1.01,99.0%,-
CNC(=O)C[C@@H](NC(=O)[C@@H](NC(=O)[C@H](NC(=O)[C@H](C)NC(=O)[C@H](NC(=O)[C@H](C)NC(=O)CNC(=O)[C@@H](NC=O)C(C)C)C(C)C)C(C)C)C(C)C)C(=O)N[C@@H](Cc1c[nH]c2ccccc12)C(=O)N[C@@H](C(=O)N[C@@H](Cc1c[nH]c2ccccc12)C(=O)N[C@H](CC(C)C)C(=O)N[C@@H](Cc1c[nH]c2ccccc12)C(=O)N[C@H](CC(C)C)C(=O)N[C@@H](Cc1c[nH]c2ccccc12)C(=O)NCCO)C(C)C [compound 2898] (For-VGA[dV]A[dV]V[dD](NHMe)W[dV]W[dL]W[dL]W-NHCH2CH2OH),1.13,100.0%,-
